From publication PMC6376162, “HEXIM1 Peptide Exhibits Antimicrobial Activity Against Antibiotic Resistant Bacteria Through Guidance of Cell Penetrating Peptide” (Frontiers in Microbiology, 2019) come the findings set out here.

Each structure is given as a SMILES string. Converted amounts (≈) assume the structure as drawn. Residues, ends and D or L forms follow the SMILES beside them.

For one data set, the system named is P. aeruginosa 544. The format is cell-based, Pseudomonas aeruginosa. The note with it: 544, 20 h. The protocol: (§1) Bacterial strains were either purchased from American Type Culture Collection (ATCC, United States) or provided by National University Hospital, Singapore. Prior to assays, all bacteria, except for Enterococcus faecalis, were grown overnight to stationary phase at 37°C in Luria Bertani (LB) broth (Novagen, Germany). The overnight cultures were 10-fold diluted in fresh cation-adjusted Mueller Hinton II broth (MHBII) (Becton Dickinson, United States) and grown for additional few hours at 37°C to obtain mid-log phase culture. E. faecalis strains were grown in M17 broth (Becton Dickenson, United States) for both overnight and mid-log phase culturing. Human keratinocyte cell line, HaCaT, was purchased from Creative Bioarray (United States) and cultured in Dulbecco’s Modified Eagle’s medium with 4.5 g/L glucose, 2 mM L-glutamine, and 10% fetal bovine serum.
(§2) Minimum inhibition concentrations (MICs) were determined by using broth microdilution method in a 96-well microtiter plate according to guidelines of the Clinical and Laboratory Standards Institute ([CLSI, 2012]). Briefly, mid-log phase cultures were diluted with MHBII and added to wells containing serially diluted peptides to give final cell concentration of 5 × 10^5 cells ml^−1. Peptides were prepared in twofold serial dilution series to give a final concentration range from 2 to 128 μM. Cecropin P1 (CECP1) and Cap11-1-18m^2 (CapM2) treated cells were used as positive controls, while untreated cells were used as a negative control.
(§3) To further assess the potency of peptides, wells with no visible growth from MIC tests were subsequently plated on LB agar plates and incubated overnight at 37°C. […] Both MIC and MBC assays were conducted on three to five separate occasions and if results were within one doubling dilutions of each other, the highest reading was recorded for analysis.

The subject of another data set is E. faecalis VRE. The format is cell-based, Enterococcus faecalis. The note with it: 20 h. On the procedure:
as §1, §2, §3

The test system of a further data set is S. aureus 43300. The format is cell-based, Staphylococcus aureus. The note with it: 43300, 20 h. The protocol:
as §1, §2, §3

Data set [1] has as its system Enterococcus faecalis SEN. The format is cell-based. The settings on record: 20 h. On the procedure:
as §1, §2, §3

A further data set concerns Escherichia coli 25922. The format is cell-based. The note with it: 25922, 20 h. The protocol:
as §1, §2, §3

For another data set, the system named is Escherichia coli BAA2523. The format is cell-based. The settings on record: BAA2523, 20 h. On the procedure:
as §1, §2, §3

The subject of data set [2] is Pseudomonas aeruginosa 27853. The format is cell-based. The settings on record: 27853, 20 h. On the procedure: as §1, §2, §3
Data set [3] deals with Staphylococcus aureus 29213. The format is cell-based. The settings on record: 29213, 20 h. The protocol: as §1, §2, §3
The subject of data set [4] is panel of antibiotic sensitive and resistant bacteria. The format is cell-based. The settings on record: 20 h. The protocol: as §1, §2, §3
For data set [5], the system named is HaCaT human keratinocyte cell line. Kind of data set: Viability assay for mammalian cells (CellTiter-Glo). The note with it: overnight; for cytotoxicity against HaCat cells: 30 μM; for toxicity against HaCaT cells at the highest concentration: 100 μM. The format is cell-based. On the procedure: as §1
HaCat cells (1 × 10^5 cells mL^−1) were seeded in a 96-well clear-bottomed white plate (Corning) in Dulbecco’s Modified Eagle’s medium with 4.5 g/L glucose, 2 mM L-glutamine, and 10% fetal bovine serum and incubated overnight at 37°C. On the following day, cells were treated with the indicated peptides at serial-diluted concentrations and incubated overnight. CellTiter-Glo reagent (Promega) was utilized to determine the cell viability based on the manufacturer’s instructions.
(ATP-based viability assays read luminescence as a measure of living cells.)

For the compound `CC(C)C[C@H](NC(=O)[C@@H](N)CCC(N)=O)C(=O)NCC(=O)N[C@@H](CCCNC(=N)N)C(=O)N[C@@H](CCCNC(=N)N)C(=O)N[C@@H](CCCNC(=N)N)C(=O)N[C@@H](Cc1c[nH]cn1)C(=O)N[C@@H](CCCNC(=N)N)C(=O)N[C@@H](CCCNC(=N)N)C(=O)N[C@@H](CCCNC(=N)N)C(=O)N1CCC[C@H]1C(=O)N[C@@H](CO)C(=O)N[C@@H](CCCNC(=N)N)C(=O)N[C@@H](CCCNC(=N)N)C(=O)N[C@@H](CCCNC(=N)N)C(=O)N[C@@H](CCCNC(=N)N)C(=O)N[C@@H](Cc1c[nH]cn1)C(=O)N[C@@H](Cc1c[nH]c2ccccc12)C(=O)O` [BR-RRR12] (H-QLGRRRHRRRPSRRRRHW-OH), the MBC – broadly, the smallest concentration meeting the test's criterion for killing – with P. aeruginosa 544 was over 128 µM; against E. faecalis VRE it was over 128 µM; in data set [1] it was over 128 µM; against Escherichia coli 25922, 64 µM (≈ 161 µg/mL); with Escherichia coli BAA2523, over 128 µM; in data set [2] it was over 128 µM. For the same compound, the MBC in data set [3] was over 128 µM. For the same compound, the MIC (in general, the lowest concentration found to suppress growth) is 16 µM (≈ 40.4 µg/mL) against E. faecalis VRE; 16 µM (≈ 40.4 µg/mL) in the data set on S. aureus 43300; 32 µM (≈ 80.7 µg/mL) in data set [1]; 64 µM (≈ 161 µg/mL) in the data set with Escherichia coli 25922; over 128 µM against Escherichia coli BAA2523; over 128 µM in data set [2]. Also, the MIC in [3] was found to be 32 µM (≈ 80.7 µg/mL). Further, the “MICs (range over inhibited strains)” value in [4] lay in the range of 16 to 64 µM.
Consider `CC[C@H](C)[C@H](NC(=O)CNC(=O)[C@H](CCC(=O)O)NC(=O)[C@H](CO)NC(=O)[C@@H](NC(=O)[C@H](CCCNC(=N)N)NC(=O)[C@H](CCCCN)NC(=O)[C@H](CCCCN)NC(=O)[C@H](C)NC(=O)[C@H](CO)NC(=O)[C@H](CC(N)=O)NC(=O)[C@H](CCC(=O)O)NC(=O)[C@H](CC(C)C)NC(=O)[C@H](CCCCN)NC(=O)[C@H](CCCCN)NC(=O)[C@H](C)NC(=O)[C@@H](NC(=O)[C@H](CCCCN)NC(=O)[C@H](CO)NC(=O)[C@H](CC(C)C)NC(=O)[C@H](Cc1c[nH]c2ccccc12)NC(=O)[C@@H](N)CO)[C@@H](C)O)[C@@H](C)CC)C(=O)N[C@@H](C)C(=O)N[C@H](C(=O)N[C@@H](C)C(=O)N[C@H](C(=O)N[C@@H](CCC(N)=O)C(=O)NCC(=O)NCC(=O)N1CCC[C@H]1C(=O)N[C@@H](CCCNC(=N)N)C(=O)O)[C@@H](C)CC)[C@@H](C)CC` [CECP1, Cecropin P1, reference compound] (H-SWLSKTAKKLENSAKKRISEGIAIAIQGGPR-OH), for which the MBC with P. aeruginosa 544 is 32 µM (≈ 107 µg/mL); in the data set with E. faecalis VRE it was over 128 µM; in the data set on S. aureus 43300 it was over 128 µM; in data set [1], over 128 µM; in the data set with Escherichia coli 25922, 4 µM (≈ 13.4 µg/mL); with Escherichia coli BAA2523, 64 µM (≈ 214 µg/mL). Also, the minimum bactericidal concentration (MBC) in data set [2] was 32 µM (≈ 107 µg/mL); in data set [3] it was over 128 µM. Besides, the MIC with P. aeruginosa 544 was 16 µM (≈ 53.4 µg/mL); in the data set with E. faecalis VRE it was over 128 µM; in the data set with S. aureus 43300, over 128 µM; in data set [1], over 128 µM; against Escherichia coli 25922, 4 µM (≈ 13.4 µg/mL); in the data set with Escherichia coli BAA2523 it was 64 µM (≈ 214 µg/mL). For the same compound, the MIC in [2] was 16 µM (≈ 53.4 µg/mL); in data set [3], over 128 µM.
Take `CC[C@H](C)[C@H](NC(=O)[C@H](CC(C)C)NC(=O)[C@H](CCCCN)NC(=O)[C@H](CC(C)C)NC(=O)[C@H](CC(C)C)NC(=O)[C@H](CCCCN)NC(=O)[C@H](CCCNC(=N)N)NC(=O)[C@H](Cc1ccccc1)NC(=O)[C@H](CC(C)C)NC(=O)[C@H](CCCCN)NC(=O)[C@H](CCCNC(=N)N)NC(=O)[C@H](CC(C)C)NC(=O)[C@@H](N)CCCCN)C(=O)N[C@@H](CCCNC(=N)N)C(=O)N[C@@H](CCCCN)C(=O)N[C@@H](CC(C)C)C(=O)N[C@@H](CC(C)C)C(=O)N[C@@H](CCCNC(=N)N)C(=O)O` [CapM2, Cap11-1-18m^2, reference compound] (H-KLRKLFRKLLKLIRKLLR-OH): the MBC against P. aeruginosa 544 was 32 µM (≈ 74.8 µg/mL); in the data set on E. faecalis VRE, 16 µM (≈ 37.4 µg/mL); in the data set with S. aureus 43300, 16 µM (≈ 37.4 µg/mL); in data set [1], 16 µM (≈ 37.4 µg/mL); against Escherichia coli 25922, 32 µM (≈ 74.8 µg/mL); in the data set with Escherichia coli BAA2523 it was 64 µM (≈ 150 µg/mL). The MBC in data set [2] and in data set [3] was 32 µM (≈ 74.8 µg/mL) in each case. For the same compound, the MIC in the data set with P. aeruginosa 544 was 16 µM (≈ 37.4 µg/mL); in the data set with E. faecalis VRE it was 16 µM (≈ 37.4 µg/mL); with S. aureus 43300 it was 16 µM (≈ 37.4 µg/mL); in [1], 16 µM (≈ 37.4 µg/mL); in the data set with Escherichia coli 25922 it was 16 µM (≈ 37.4 µg/mL); in the data set with Escherichia coli BAA2523, 32 µM (≈ 74.8 µg/mL). For the same compound, the MIC in [2] and in data set [3] was 16 µM (≈ 37.4 µg/mL) in each case.
Regarding `CC[C@H](C)[C@H](NC(=O)[C@H](CCCCN)NC(=O)[C@@H](NC(=O)[C@H](CCC(N)=O)NC(=O)[C@@H](N)CCCNC(=N)N)[C@@H](C)CC)C(=O)N[C@@H](Cc1c[nH]c2ccccc12)C(=O)N[C@@H](Cc1ccccc1)C(=O)N[C@@H](CCC(N)=O)C(=O)N[C@@H](CC(N)=O)C(=O)N[C@@H](CCCNC(=N)N)C(=O)N[C@@H](CCCNC(=N)N)C(=O)N[C@@H](Cc1c[nH]c2ccccc12)C(=O)NCC(=O)NCC(=O)N[C@@H](CCC(N)=O)C(=O)N[C@@H](CC(C)C)C(=O)NCC(=O)N[C@@H](CCCCN)C(=O)N[C@@H](CCCCN)C(=O)N[C@@H](CCCCN)C(=O)N[C@@H](Cc1c[nH]cn1)C(=O)N[C@@H](CCCNC(=N)N)C(=O)N[C@@H](CCCNC(=N)N)C(=O)N[C@@H](CCCNC(=N)N)C(=O)N1CCC[C@H]1C(=O)N[C@@H](CO)C(=O)N[C@@H](CCCCN)C(=O)N[C@@H](CCCCN)C(=O)N[C@@H](CCCCN)C(=O)N[C@@H](CCCNC(=N)N)C(=O)N[C@@H](Cc1c[nH]cn1)C(=O)N[C@@H](Cc1c[nH]c2ccccc12)C(=O)O` [Pen-BR] (H-RQIKIWFQNRRWGGQLGKKKHRRRPSKKKRHW-OH), in data set [5], the “cytotoxicity against HaCat cells” value was “little or no cytotoxicity” and the “toxicity against HaCaT cells at the highest concentration” value was “toxic activity”. Moreover, the “effect on HaCaT cells under lower concentrations” value in data set [5] (below 100 μM (10, 30, 50 μM)) was “did not cause any significant effects”.
As for `CC[C@H](C)[C@H](NC(=O)[C@H](CCCCN)NC(=O)[C@@H](NC(=O)[C@H](CCC(N)=O)NC(=O)[C@@H](N)CCCNC(=N)N)[C@@H](C)CC)C(=O)N[C@@H](Cc1c[nH]c2ccccc12)C(=O)N[C@@H](Cc1ccccc1)C(=O)N[C@@H](CCC(N)=O)C(=O)N[C@@H](CC(N)=O)C(=O)N[C@@H](CCCNC(=N)N)C(=O)N[C@@H](CCCNC(=N)N)C(=O)N[C@@H](Cc1c[nH]c2ccccc12)C(=O)NCC(=O)NCC(=O)N[C@@H](CCC(N)=O)C(=O)N[C@@H](CC(C)C)C(=O)NCC(=O)N[C@@H](CCCNC(=N)N)C(=O)N[C@@H](CCCNC(=N)N)C(=O)N[C@@H](CCCNC(=N)N)C(=O)N[C@@H](Cc1c[nH]cn1)C(=O)N[C@@H](CCCNC(=N)N)C(=O)N[C@@H](CCCNC(=N)N)C(=O)N[C@@H](CCCNC(=N)N)C(=O)N1CCC[C@H]1C(=O)N[C@@H](CO)C(=O)N[C@@H](CCCNC(=N)N)C(=O)N[C@@H](CCCNC(=N)N)C(=O)N[C@@H](CCCNC(=N)N)C(=O)N[C@@H](CCCNC(=N)N)C(=O)N[C@@H](Cc1c[nH]cn1)C(=O)N[C@@H](Cc1c[nH]c2ccccc12)C(=O)O` [Pen-RRR] (H-RQIKIWFQNRRWGGQLGRRRHRRRPSRRRRHW-OH), in data set [5], the “cytotoxicity against HaCat cells” value is given as “little or no cytotoxicity” and the “toxicity against HaCaT cells at the highest concentration” value is on record as “toxic activity”.
